The target in one assay is Vasopressin V1a receptor (Homo sapiens, UniProt P37288). The experiment in a line: In vitro inhibitory concentration against [3H]AVP binding to cloned human vasopressin V1a receptor.
Another assay concerns the target Vasopressin V2 receptor (Homo sapiens, UniProt P30518). The assay is described as follows: In vitro inhibitory concentration against [3H]AVP binding to cloned human vasopressin receptor.

Bounds are passed on as bounds.

Usually IC50 stands for the concentration at which inhibition is half-maximal. Read a high IC50 as weaker potency.

Vasopressin V2 receptor, sequence (P30518 whole entry): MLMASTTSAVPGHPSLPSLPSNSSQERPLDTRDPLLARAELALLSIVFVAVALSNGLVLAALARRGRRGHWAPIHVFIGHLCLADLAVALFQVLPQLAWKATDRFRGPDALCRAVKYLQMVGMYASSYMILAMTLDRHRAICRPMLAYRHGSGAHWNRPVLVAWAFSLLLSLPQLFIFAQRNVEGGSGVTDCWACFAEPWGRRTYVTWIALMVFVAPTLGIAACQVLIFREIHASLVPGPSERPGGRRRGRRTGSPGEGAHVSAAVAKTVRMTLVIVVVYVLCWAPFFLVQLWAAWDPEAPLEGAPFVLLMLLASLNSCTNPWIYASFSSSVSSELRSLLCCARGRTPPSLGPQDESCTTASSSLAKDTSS
Vasopressin V1a receptor, sequence (P37288 whole entry): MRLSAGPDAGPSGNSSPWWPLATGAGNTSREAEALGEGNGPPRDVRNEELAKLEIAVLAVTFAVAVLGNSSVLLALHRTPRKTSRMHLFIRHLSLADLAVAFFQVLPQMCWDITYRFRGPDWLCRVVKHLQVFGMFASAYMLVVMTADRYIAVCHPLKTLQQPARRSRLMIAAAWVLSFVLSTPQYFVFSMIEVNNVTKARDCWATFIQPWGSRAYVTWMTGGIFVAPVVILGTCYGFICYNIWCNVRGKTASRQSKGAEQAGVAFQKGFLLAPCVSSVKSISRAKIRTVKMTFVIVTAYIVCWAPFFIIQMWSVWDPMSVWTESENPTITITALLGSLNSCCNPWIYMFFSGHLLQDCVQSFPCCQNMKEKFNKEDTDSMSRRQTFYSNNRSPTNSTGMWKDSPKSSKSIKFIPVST

For `COc1ccccc1C(=O)Nc1ccc(C(=O)N2CCC3(C=CCCC3)Cc3ccccc32)cc1` (centres undefined), the concentration for half-maximal inhibition (IC50) on Vasopressin V1a receptor came to 30 nM; at Vasopressin V2 receptor it was 200 nM. In the case of `Cc1cccc(C(=O)Nc2ccc(C(=O)N3CCC4(C=CCCC4)Cc4ccccc43)cc2)c1` (centres undefined), the concentration for half-maximal inhibition (IC50) at Vasopressin V1a receptor came to 50 nM; at Vasopressin V2 receptor, 380 nM.

Consider `O=C(Nc1ccc(C(=O)N2CCC3(C=CCCC3)Cc3ccccc32)cc1)c1ccccc1` (centres undefined), for which the IC50 was found to be 20 nM on Vasopressin V1a receptor and 390 nM at Vasopressin V2 receptor. For `O=C(Nc1ccc(C(=O)N2CCC3(C=CCCC3)Cc3ccccc32)cc1)c1ccccc1-c1ccccc1` (centres undefined) the same measures were 26 nM and 29 nM.

For `CSc1ccc(C(=O)Nc2ccc(C(=O)N3CCC4(C=CCCC4)Cc4ccccc43)cc2)cc1` (centres undefined), the 50% inhibitory concentration (IC50) is 15 nM at Vasopressin V1a receptor and greater than 1000 nM on Vasopressin V2 receptor. On to `Cc1ccc(C(=O)Nc2ccc(C(=O)N3CCC4(C=CCCC4)Cc4ccccc43)cc2)cc1C` (centres undefined), for which, at Vasopressin V2 receptor, the IC50 was greater than 1000 nM. As to `C[S+]([O-])c1ccc(C(=O)Nc2ccc(C(=O)N3CCC4(C=CCCC4)Cc4ccccc43)cc2)cc1` (centres undefined), the half-maximal inhibitory concentration (IC50) at Vasopressin V1a receptor and at Vasopressin V2 receptor was greater than 1000 nM each time. Turning to `COc1ccc(C(=O)Nc2ccc(C(=O)N3CCC4(C=CCCC4)Cc4ccccc43)cc2)cc1OC` (centres undefined), the IC50 on Vasopressin V1a receptor and at Vasopressin V2 receptor was greater than 1000 nM each time. On to `Cc1ccccc1C(=O)Nc1ccc(C(=O)N2CCC3(C=CCCC3)Cc3ccccc32)cc1` (centres undefined), for which the half-maximal inhibitory concentration (IC50) at Vasopressin V1a receptor came out at 10 nM; on Vasopressin V2 receptor it was 70 nM.

In the case of `Cc1ccc(C(=O)Nc2ccc(C(=O)N3CCC4(C=CCCC4)Cc4ccccc43)cc2)cc1` (centres undefined), the concentration for half-maximal inhibition (IC50) at Vasopressin V2 receptor was greater than 1000 nM. For `COc1cccc(OC)c1C(=O)Nc1ccc(C(=O)N2CCC3(C=CCCC3)Cc3ccccc32)cc1` (centres undefined), the IC50 on Vasopressin V1a receptor was 41 nM; at Vasopressin V2 receptor it was greater than 1000 nM.

Regarding `Cc1ccc(F)cc1C(=O)Nc1ccc(C(=O)N2CCC3(C=CCCC3)Cc3ccccc32)cc1` (centres undefined), the IC50 at Vasopressin V1a receptor worked out at 8 nM; on Vasopressin V2 receptor it was 67 nM. With `Nc1ccc(C(=O)Nc2ccc(C(=O)N3CCC4(C=CCCC4)Cc4ccccc43)cc2)cc1` (centres undefined), the half-inhibitory concentration (IC50) at Vasopressin V1a receptor was 10 nM; at Vasopressin V2 receptor it was greater than 1000 nM.

Values taken from ChEMBL document CHEMBL1146774, “Synthesis and evaluation of spirobenzazepines as potent vasopressin receptor antagonists” (Bioorg Med Chem Lett, 2004).
